Experimental data as given in patent US6967196B1, “Sulfonamide compounds and uses thereof” (Bristol-Myers Squibb Company, priority 1999, dated 2005).
Structures can show the parent of a compound that is named as a salt. Where two headings read alike, the source gives them in different places.

System: amyloid β production in transfected H4 (human neuroglioma) cells stably expressing APP constructs
Assay: In vitro cell-based assay of inhibitors of amyloid β production (ELISA)
Settings: transfected H4 cells stably expressing APP, approximately 16 hours incubation, amyloid β in medium by ELISA, read-out: ACTIVITY (IC50, inhibition of amyloid β production)
Summary of the method: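 Plate wt/variant APP cells; ≥6 h later swap to medium + compound (10-100 μM screen); incubate ~16 h; sample medium; Aβ ELISA with C-terminal capture / N-terminal detection Abs; quantify vs Aβ standard curve.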

Structure (SMILES) | IC50 (Homo sapiens, 16 h) | other results
CCC[C@@H](C)N(Cc1ccccc1OCCCN1CCCCC1)S(=O)(=O)c1ccc(Cl)cc1 [Example 867, 4-chloro-N-[(1R)-1-methylbutyl]-N-{2-[3-(1-piperidinyl)propoxy]benzyl}benzenesulfonamide hydrochloride] | – | IC50 (hydrochloride): 0.1 to 0.5 µM
O=S(=O)(c1ccc(Cl)cc1)N(Nc1cc(F)ccc1F)[C@H](CO)c1ccccc1 [Example 868, 4-chloro-N-(2,5-difluoroanilino)-N-[(1S)-2-hydroxy-1-phenylethyl]benzenesulfonamide] | 0.1 to 0.5 µM | –
O=S(=O)(c1ccc(Cl)cc1)N(Cc1ccccc1OCCCSC1CCCCC1)c1cc(F)ccc1F [Example 869, 4-chloro-N-{2-[3-(cyclohexylsulfanyl)propoxy]benzyl}-N-(2,5-difluorophenyl)benzenesulfonamide] | 0.1 to 0.5 µM | –
COc1ccc(S(=O)(=O)CCCOc2ccccc2CN(Nc2cc(F)ccc2F)S(=O)(=O)c2ccc(Cl)cc2)cc1 [Example 871, 4-chloro-N-(2,5-difluoroanilino)-N-(2-{3-[(4-methoxyphenyl)sulfonyl]propoxy}benzyl)benzenesulfonamide] | 0.1 to 0.5 µM | –
C=Cc1ccccc1[C@@H](C)N(c1cc(F)ccc1F)S(=O)(=O)c1ccc(Cl)cc1 [Example 874, 4-chloro-N-(2,5-difluorophenyl)-N-[(1R)-1-(2-vinylphenyl)ethyl]benzenesulfonamide] | 0.1 to 0.5 µM | –
Cc1ccccc1N(Cc1ccccc1OCCCN1CCCCC1)S(=O)(=O)c1ccc(Cl)cc1 [Example 875, 4-chloro-N-(2-methylphenyl)-N-{2-[3-(1-piperidinyl)propoxy]benzyl}benzenesulfonamide hydrochloride] | 0.1 to 0.5 µM | –
O=S(=O)(c1ccc(Cl)cc1)N(Cc1ccccc1OCCCN1CCC2(CC1)OCCO2)c1ccccc1 [Example 877, 4-chloro-N-{2-[3-(1,4-dioxa-8-azaspiro[4.5]dec-8-yl)propoxy]benzyl}-N-phenylbenzenesulfonamide] | 0.1 to 0.5 µM | –
CCC(c1ccccc1OCCCN1CCCCC1)N(c1cc(F)ccc1F)S(=O)(=O)c1ccc(Cl)cc1 (stereo not drawn) [Example 878, 4-chloro-N-(2,5-difluorophenyl)-N-(1-{2-[3-(1-piperidinyl)propoxy]phenyl}propyl)benzenesulfonamide hydrochloride] | > 0.5 µM | –
COc1ccc(S(=O)(=O)N(Cc2ccccc2OCCCN2CCCCC2)c2cc(F)ccc2F)cc1 [Example 879, N-(2,5-difluorophenyl)-4-methoxy-N-{2-[3-(1-piperidinyl)propoxy]benzyl}benzenesulfonamide hydrochloride] | > 0.5 µM | –
O=S(=O)(c1ccc(Cl)cc1)N(Cc1ccccc1OCCCN1CCC(Cc2ccccc2)CC1)c1ccccc1 [Example 880, N-{2-[3-(4-benzyl-1-piperidinyl)propoxy]benzyl}-4-chloro-N-phenylbenzenesulfonamide hydrochloride] | > 0.5 µM | –
O=S(=O)(c1ccc(Cl)cc1)N(Cc1ccccc1OCCCn1ccnc1)c1ccccc1 [Example 882, 4-chloro-N-{2-[3-(1H-imidazol-1-yl)propoxy]benzyl}-N-phenylbenzenesulfonamide hydrochloride] | > 0.5 µM | –
O=S(=O)(c1ccc(Cl)cc1)N(Cc1ccccc1OCCC[N+]1([O-])CCCCC1)c1ccccc1 [Example 883] | – | IC50: > 0.5 µM
Cc1ccc(C(=O)N2CCCCC2CCOc2ccccc2CN(c2cc(F)ccc2F)S(=O)(=O)c2ccc(Cl)cc2)cc1 (stereo not drawn) [Example 884, 4-chloro-N-(2,5-difluorophenyl)-N-(2-{2-[1-(4-methylbenzoyl)-2-piperidinyl]ethoxy}benzyl)benzenesulfonamide] | > 0.5 µM | –
CC(COc1ccccc1C(C)N(c1cc(F)ccc1F)S(=O)(=O)c1ccc(Cl)cc1)N(C)S(=O)(=O)c1ccc(Cl)cc1 (stereo not drawn) [Example 885, 4-chloro-N-[1-(2-{2-[[(4-chlorophenyl)sulfonyl](methyl)amino]propoxy}phenyl)ethyl]-N-(2,5-difluorophenyl)benzenesulfonamide] | > 0.5 µM | –
O=S(=O)(c1ccc(Cl)cc1)N(Cc1ccccc1)Cc1ccccc1OCCCN1CCCCC1 [Example 886, N-benzyl-4-chloro-N-{2-[3-(1-piperidinyl)propoxy]benzyl}benzenesulfonamide hydrochloride] | > 0.5 µM | –
O=S(=O)(c1ccc(Cl)cc1)N(Cc1ccccc1OCCCN1CCCCC1)c1cc(Cl)ccc1O [Example 887, 4-chloro-N-(5-chloro-2-hydroxyphenyl)-N-{2-[3-(1-piperidinyl)propoxy]benzyl}benzenesulfonamide hydrochloride] | > 0.5 µM | –
CN1CCCCC1CCOc1ccccc1CN(c1ccccc1)S(=O)(=O)c1ccc(Cl)cc1 (stereo not drawn) [Example 889, 4-chloro-N-{2-[2-(1-methyl-2-piperidinyl)ethoxy]benzyl}-N-phenylbenzenesulfonamide hydrochloride] | > 0.5 µM | –
CCCCOc1ccc(C(=O)N2CCCCC2CCOc2ccccc2CN(c2cc(F)ccc2F)S(=O)(=O)c2ccc(Cl)cc2)cc1 (stereo not drawn) [Example 899, N-(2-{2-[1-(4-butoxybenzoyl)-2-piperidinyl]ethoxy}benzyl)-4-chloro-N-(2,5-difluorophenyl)benzenesulfonamide] | > 0.5 µM | –
O=C(OC[C@H](c1ccccc1)N(c1cc(F)ccc1F)S(=O)(=O)c1ccc(Cl)cc1)c1ccncc1 [Example 904, (2S)-2-{[(4-chlorophenyl)sulfonyl]-2,5-difluoroanilino}-2-henylethyl isonicotinate] | – | IC50: > 0.5 µM
O=S(=O)(c1ccc(Cl)cc1)N(Cc1ccccc1OCCCN1CCCC(O)C1)c1ccccc1 (stereo not drawn) [Example 915, 4-chloro-N-{2-[3-(3-hydroxy-1-piperidinyl)propoxy]benzyl}-N-phenylbenzenesulfonamide hydrochloride] | > 0.5 µM | –

Now from value to compound, other results behind:

IC50 (Homo sapiens, 16 h) | Structure (SMILES) | other results
> 0.5 µM | CC(C)N(C(=O)N(C)CCOc1ccccc1C(C)N(c1cc(F)ccc1F)S(=O)(=O)c1ccc(Cl)cc1)C(C)C (stereo not drawn) [Example 888, 4-chloro-N-(2,5-difluorophenyl)-N-[1-(2-{2-[[(diisopropylamino)carbonyl](methyl)amino]ethoxy}phenyl)ethyl]benzenesulfonamide] | –
> 0.5 µM | COc1ccc(C(=O)N2CCCCC2CCOc2ccccc2CN(c2cc(F)ccc2F)S(=O)(=O)c2ccc(Cl)cc2)cc1OC (stereo not drawn) [Example 890, 4-chloro-N-(2,5-difluorophenyl)-N-(2-{2-[1-(3,4-dimethoxybenzoyl)-2-piperidinyl]ethoxy}benzyl)benzenesulfonamide] | –
> 0.5 µM | C[C@H](c1ccccc1OCCCn1ccnc1)N(c1cccc(F)c1)S(=O)(=O)c1ccc(Cl)cc1 [Example 895, 4-chloro-N-(3-fluorophenyl)-N-((1R)-1-{2-[3-(1H-imidazol-1-yl)propoxy]phenyl}ethyl)benzenesulfonamide hydrochloride] | –
> 0.5 µM | O=S(=O)(c1ccc(Cl)cc1)N(Cc1ccccc1OCCCN1CCCCC1)C1CCCCCC1 [Example 897, 4-chloro-N-cycloheptyl-N-{2-[3-(1-piperidinyl)propoxy]benzyl}benzenesulfonamide hydrochloride] | –
> 0.5 µM | O=C(c1ccc(I)cc1)N1CCCCC1CCOc1ccccc1CN(c1cc(F)ccc1F)S(=O)(=O)c1ccc(Cl)cc1 (stereo not drawn) [Example 901, 4-chloro-N-(2,5-difluorophenyl)-N-(2-{2-[1-(4-iodobenzoyl)-2-piperidinyl]ethoxy}benzyl)benzenesulfonamide] | –
> 0.5 µM | COc1ccccc1C(=O)N1CCCCC1CCOc1ccccc1CN(c1cc(F)ccc1F)S(=O)(=O)c1ccc(Cl)cc1 (stereo not drawn) [Example 902, 4-chloro-N-(2,5-difluorophenyl)-N-(2-{2-[1-(2-methoxybenzoyl)-2-piperidinyl]ethoxy}benzyl)benzenesulfonamide] | –
> 0.5 µM | O=[N+]([O-])c1ccc(S(=O)(=O)CCCOc2ccccc2CN(c2cc(F)ccc2F)S(=O)(=O)c2ccc(Cl)cc2)cc1 [Example 905, 4-chloro-N-(2,5-difluorophenyl)-N-(2-{3-[(4-nitrophenyl)sulfonyl]propoxy}benzyl)benzenesulfonamide] | –
> 0.5 µM | O=S(=O)(c1ccc(Cl)cc1)N(Cc1ccccc1OCCCN1CCCCC1)c1cc(Cl)cnc1Cl [Example 906, 4-chloro-N-(2,5-dichloro-3-pyridinyl)-N-{2-[3-(1-piperidinyl)propoxy]benzyl}benzenesulfonamide hydrochloride] | –
> 0.5 µM | C[C@H](c1ccccc1OCCCn1ccnc1)N(c1cc(F)ccc1F)S(=O)(=O)c1ccc(Cl)cc1 [Example 908, 4-chloro-N-(2,5-difluorophenyl)-N-((1R)-1-{2-[3-(1H-imidazol-1-yl)propoxy]phenyl}ethyl)benzenesulfonamide hydrochloride] | –
> 0.5 µM | COc1cccc(C(=O)N2CCCCC2CCOc2ccccc2CN(c2cc(F)ccc2F)S(=O)(=O)c2ccc(Cl)cc2)c1 (stereo not drawn) [Example 909, 4-chloro-N-(2,5-difluorophenyl)-N-(2-{2-[1-(3-methoxybenzoyl)-2-piperidinyl]ethoxy}benzyl)benzenesulfonamide] | –
> 0.5 µM | CSCCCc1cc(F)ccc1[C@@H](C)N(c1cc(F)ccc1F)S(=O)(=O)c1ccc(SC)cc1 [Example 912, N-(2,5-difluorophenyl)-N-((1R)-1-{4-fluoro-2-[3-(methylsulfanyl)propyl]phenyl}ethyl)-4-(methylsulfanyl)benzenesulfonamide] | –
> 0.5 µM | O=C1c2ccccc2C(=O)N1CCCOc1ccccc1CN(c1cc(F)ccc1F)S(=O)(=O)c1ccc(Cl)cc1 [Example 916, 4-chloro-N-(2,5-difluorophenyl)-N-{2-[3-(1,3-dioxo-1,3-dihydro-2H-isoindol-2-yl)propoxy]benzyl}benzenesulfonamide] | –
> 0.5 µM | CC(COc1ccccc1CN(c1ccccc1)S(=O)(=O)c1ccc(Cl)cc1)N1CCC1 (stereo not drawn) [Example 918, N-{2-[2-(1-azetidinyl)propoxy]benzyl}-4-chloro-N-phenylbenzenesulfonamide hydrochloride] | –
